We go through twelve molecules from paper PMC8151276, “An Integrated Approach toward NanoBRET Tracers for Analysis of GPCR Ligand Engagement” (Molecules, 2021).

What all share (type): binding
In assay [1] the target is T1, F2RL2 (Homo sapiens, UniProt O00254).
T1 construct: purchased Promega (in-house HiBiT-GPCR construct library, NanoBRET)
T1 sequence (O00254 22-374): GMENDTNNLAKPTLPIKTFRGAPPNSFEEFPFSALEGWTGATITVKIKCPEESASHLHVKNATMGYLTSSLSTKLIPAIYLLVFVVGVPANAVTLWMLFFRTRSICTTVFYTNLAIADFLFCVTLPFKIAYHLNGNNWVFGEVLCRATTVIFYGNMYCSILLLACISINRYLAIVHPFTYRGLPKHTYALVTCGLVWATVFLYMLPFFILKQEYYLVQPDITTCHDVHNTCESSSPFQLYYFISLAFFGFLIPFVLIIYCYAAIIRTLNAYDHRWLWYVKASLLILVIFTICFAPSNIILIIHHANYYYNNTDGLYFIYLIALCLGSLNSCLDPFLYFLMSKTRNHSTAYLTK
The assay is described as follows: NanoBRET screen HiBiT-F2RL2 in HEK293. As for the experimental part:
(§1) Each tracer candidate was screened across the entire library of HiBiT-GPCR constructs using NanoBRET as the detection modality. As depicted in Figure 4A, the specificity of interactions was evaluated through decrease in BRET due to competitive displacement of a bound tracer by excess parental compound. Each tracer was analyzed for binding to each HiBiT-GPCR fusion in the absence and in the presence of competing parental compound. Briefly, HEK293 cells were transfected with HiBiT-GPCR constructs diluted into promoterless DNA to reduce expression and maximize translocation to the cell surface. Each tracer candidate was then screened at concentrations of 1 μM and 0.1 μM across cells expressing these fusions. Cells were treated for 1.5 h with tracer either alone or in the presence of 20 μM competing parental compound (i.e., control). BRET was measured upon addition of purified LgBiT and subsequent complementation with HiBiT genetically fused to a GPCR. The specificity of interactions was assessed through a decrease in BRET signal due to competitive displacement of the bound tracer. To further gauge the robustness of these interactions, the fold response over the control (i.e., BRETtracer/BRETcontrol) was calculated. We chose a 1.5-fold response, which translates to ≥7-fold signal over noise as the minimal threshold required to score an interaction as positive. […]. Below we highlight the screening results obtained for our exemplary fluorescent tracers based on Clozapine, Amitriptyline and AZD1283.
(§2) HiBiT-GPCR DNA constructs were diluted in 10 mM Tris pH 8 to a final concentration of 0.01 μg/μL, arrayed in 96-well plates and stored at −20 °C. For transfection, HEK293 cells were suspended in Opti-MEM (without phenol red) supplemented with 2% fetal bovine serum (Seradigm) and 100 units/mL penicillin–streptomycin (Gibco) at a final concentration of 220,000 cells/mL and dispensed into white 96-well plates at 90 μL/well. Subsequent transfections and screens were carried using an Agilent Bravo Automated Liquid Handling Platform. First, the 96-well HiBiT DNA arrays were diluted 25-fold in Opti-MEM (without serum or phenol red) to a final concentration of 0.0004 μg/μL and 20 μL of the diluted DNAs were transferred into new 96-well plates. Next, promoterless carrier DNA (1 μg/μL) was diluted 25-fold (0.04 μg/μL) and then dispensed into the diluted arrays at 20 μL/well. Following brief mixing, Viafect transfection reagent (Promega) diluted 16-fold into Opti-MEM was dispensed into the plates at 40 μL/well. After mixing by pipetting, plates were incubated for 10 min on the pipetting station deck. The DNA-transfection reagent complexes were then added to plates containing cells. To facilitate the screen, 10 μL of DNA-transfection reagent complexes were added in duplicates to the top 4 and bottom 4 rows, resulting in two identical 48-well arrays per plate. Plates with transfected cells were incubated for 18–20 h at 37 °C/5% CO2. A screen of each tracer across the entire library using two different concentrations requires duplicate plates of transfected cells. Depending on the number of tracers being screened, transfections can be scaled up using the same ratios. The next day, for each tracer, four 20× screening solutions in tracer dilution buffer (Promega) were prepared: two duplicates at final concentration of 20 μM and two duplicates at a final concentration of 2 μM. A competing unmodified compound was added to one of each duplicate at a final concentration of 400 μM. The four resulting solutions were diluted 4-fold in Opti-MEM without serum or phenol red to generate 5× solutions (5 µM and 0.5 µM tracer +/− 100 μM competing compound). To screen the library, a BioTek MultiFlo FX liquid dispenser was used to dispense 22.5 µL of tracer solution to the top 4 rows and 22.5 µL tracer + competing compound solution to the 4 bottom rows. Plates were briefly mixed on an orbital shaker and incubated for 1.5 h at room temperature. […]
A general note: BRET reads energy transfer from a luciferase to a nearby fluorophore.

Assay [2] has as its target T2, MC3R (Homo sapiens, UniProt P41968).
T2 construct: purchased Promega (in-house HiBiT-GPCR construct library, NanoBRET)
Nature of the assay: NanoBRET screen HiBiT-MC3R in HEK293. As for the experimental part:
as §1, §2

In assay [3] the target is T3, F2RL3 (Homo sapiens, UniProt Q96RI0).
T3 construct: purchased Promega (in-house HiBiT-GPCR construct library, NanoBRET)
T3 sequence (Q96RI0 18-385): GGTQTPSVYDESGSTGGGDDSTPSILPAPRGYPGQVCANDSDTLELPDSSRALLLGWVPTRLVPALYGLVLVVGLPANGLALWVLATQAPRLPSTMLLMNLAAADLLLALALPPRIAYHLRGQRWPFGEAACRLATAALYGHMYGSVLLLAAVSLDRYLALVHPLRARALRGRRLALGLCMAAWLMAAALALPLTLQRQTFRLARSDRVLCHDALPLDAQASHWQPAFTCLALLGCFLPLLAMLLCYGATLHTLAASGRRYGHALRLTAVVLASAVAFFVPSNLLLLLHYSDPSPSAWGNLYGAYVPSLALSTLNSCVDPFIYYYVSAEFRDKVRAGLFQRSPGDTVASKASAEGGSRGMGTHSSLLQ
The assay is described as follows: NanoBRET screen HiBiT-F2RL3 in HEK293. The procedure: as §1, §2

T2 sequence (P41968 whole entry): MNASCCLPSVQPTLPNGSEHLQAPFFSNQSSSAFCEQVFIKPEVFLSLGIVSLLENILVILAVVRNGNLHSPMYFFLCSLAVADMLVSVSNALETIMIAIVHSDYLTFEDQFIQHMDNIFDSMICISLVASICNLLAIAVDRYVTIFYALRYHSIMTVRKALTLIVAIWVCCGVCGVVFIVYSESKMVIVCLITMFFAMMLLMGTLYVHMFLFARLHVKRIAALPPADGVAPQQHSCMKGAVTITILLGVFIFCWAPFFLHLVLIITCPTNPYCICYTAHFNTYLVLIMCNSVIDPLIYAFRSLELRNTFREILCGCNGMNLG

In the case of `O=C(CCc1ccc2n1[B-](F)(F)[N+]1=C(c3ccc[nH]3)C=CC1=C2)NCc1ccc(C(=O)NCCOCCC(=O)N[C@@H]2CC[C@@]3(O)[C@H]4Cc5ccc(O)c6c5[C@@]3(CCN4CC3CC3)[C@H]2O6)cc1` [Naltrexone-3-NB590], the “NanoBRET Fold Response” value is reported as 1.07 in assay [1] (F2RL2, tracer 0.1μM); 1.02 in assay [1] (F2RL2, tracer 1μM); 0.90 in assay [2] (MC3R, tracer 0.1μM); 1.11 in assay [2] (MC3R, tracer 1μM); 0.92 in assay [3] (F2RL3, tracer 0.1μM); 1.03 in assay [3] (F2RL3, tracer 1μM).

As for `CN1CCN(C2=Nc3cc(Cl)ccc3N(CC(=O)NCCOCCOCCOCCOCCNC(=O)CCc3ccc4n3[B-](F)(F)[N+]3=C(c5ccc[nH]5)C=CC3=C4)c3ccccc32)CC1` [Clozapine-c-2-NB590], the “NanoBRET Fold Response” value in assay [1] (F2RL2, 0.1μM tracer) came out at 1.20; in assay [1] (F2RL2, 1μM tracer), 0.97; in assay [2] (MC3R, 0.1μM tracer), 1.02; in assay [2] (MC3R, 1μM tracer), 1.03; in assay [3] (F2RL3, 0.1μM tracer) it was 1.02; in assay [3] (F2RL3, 1μM tracer) it was 0.99.

As to `O=C(CCOCCOCCOCCOCCNC(=O)CCc1ccc2n1[B-](F)(F)[N+]1=C(c3ccc[nH]3)C=CC1=C2)NCCCN1CCN(C2=Nc3cc(Cl)ccc3Nc3ccccc32)CC1` [Clozapine-a-2-NB590], the “NanoBRET Fold Response” value in assay [1] (F2RL2, 0.1μM tracer) was determined as 1.02; in assay [1] (F2RL2, 1μM tracer), 1.20; in assay [2] (MC3R, 0.1μM tracer), 1.02; in assay [2] (MC3R, 1μM tracer), 0.95; in assay [3] (F2RL3, 0.1μM tracer), 1.02; in assay [3] (F2RL3, 1μM tracer), 1.15.

With `CCOC(=O)c1cc(C#N)c(N2CCC(C(=O)NS(=O)(=O)Cc3ccccc3/C=C/C(=O)NCCNC(=O)CCc3ccc4n3[B-](F)(F)[N+]3=C(c5ccc[nH]5)C=CC3=C4)CC2)nc1C` [AZD1283-1-NB590], the “NanoBRET Fold Response” value is given as 1.01 in assay [1] (F2RL2, 0.1μM); 1.12 in assay [1] (F2RL2, 1μM); 1.00 in assay [2] (MC3R, 0.1μM); 0.98 in assay [2] (MC3R, 1μM); 1.04 in assay [3] (F2RL3, 0.1μM); 1.09 in assay [3] (F2RL3, 1μM).

As for `COc1ccc2[nH]c(-c3ccc(CNC(=O)CCOCCOCCOCCOCCNC(=O)CCc4ccc5n4[B-](F)(F)[N+]4=C(c6ccc[nH]6)C=CC4=C5)cc3)c(CCNC(C)=O)c2n1` [AzomelatoninICO9-2-NB590], the “NanoBRET Fold Response” value in assay [1] (0.1μM tracer) is 0.86; in assay [1] (1μM tracer), 0.99; in assay [2] (0.1μM tracer) it was 1.02; in assay [2] (1μM tracer), 0.72; in assay [3] (0.1μM tracer), 1.05; in assay [3] (1μM tracer) it was 1.04.

With `CCCn1c(=O)c2[nH]c(-c3ccc(OCC(=O)NCCNC(=O)CCOCCNC(=O)c4ccc(CNC(=O)CCc5ccc6n5[B-](F)(F)[N+]5=C(c7ccc[nH]7)C=CC5=C6)cc4)cc3)nc2n(CCC)c1=O` [XAC-3-NB590], the “NanoBRET Fold Response” value is recorded as 0.95 in assay [1] (F2RL2, tracer 0.1μM); 1.04 in assay [1] (F2RL2, tracer 1μM); 1.04 in assay [2] (MC3R, tracer 0.1μM); 1.10 in assay [2] (MC3R, tracer 1μM); 0.99 in assay [3] (F2RL3, tracer 0.1μM); 1.05 in assay [3] (F2RL3, tracer 1μM).

In the case of `COc1ccccc1N1CCN(CCCCN2C(=O)c3ccc(CNC(=O)CCOCCNC(=O)c4ccc(CNC(=O)CCc5ccc6n5[B-](F)(F)[N+]5=C(c7ccc[nH]7)C=CC5=C6)cc4)cc3C2=O)CC1` [NAN-190-3-NB590], the “NanoBRET Fold Response” value in assay [1] (F2RL2, tracer 0.1μM) was found to be 1.10; in assay [1] (F2RL2, tracer 1μM), 0.95; in assay [2] (MC3R, tracer 0.1μM) it was 1.10; in assay [2] (MC3R, tracer 1μM), 0.95; in assay [3] (F2RL3, tracer 0.1μM) it was 1.15; in assay [3] (F2RL3, tracer 1μM) it was 0.99.

For the molecule `O=C(CCc1ccc2n1[B-](F)(F)[N+]1=C(c3ccc[nH]3)C=CC1=C2)NCc1ccc(C(=O)NCCOCCOCCNCC(O)COc2cccc3ccccc23)cc1` (stereo not shown) [Propranolol-3-NB590], the “NanoBRET Fold Response” value in assay [1] (F2RL2, 0.1μM) is 0.99; in assay [1] (F2RL2, 1μM), 1.03; in assay [2] (MC3R, 0.1μM), 1.05; in assay [2] (MC3R, 1μM) it was 0.99; in assay [3] (F2RL3, 0.1μM) it was 1.07; in assay [3] (F2RL3, 1μM), 1.00.

Regarding `COc1ccc2c(n1)c(CCNC(C)=O)cn2CCNC(=O)CCc1ccc2n1[B-](F)(F)[N+]1=C(c3ccc[nH]3)C=CC1=C2` [Azamelatonin-1-NB590], the “NanoBRET Fold Response” value in assay [1] (0.1μM tracer) came out at 1.00; in assay [1] (1μM tracer), 1.03; in assay [2] (0.1μM tracer) it was 0.93; in assay [2] (1μM tracer), 1.22; in assay [3] (0.1μM tracer), 0.98; in assay [3] (1μM tracer), 0.86.

`O=C(CCOCCOCCOCCOCCNC(=O)CCc1ccc2n1[B-](F)(F)[N+]1=C(c3ccc[nH]3)C=CC1=C2)NCCCN1CCN(C2=Nc3ccccc3Oc3ccc(Cl)cc32)CC1` [Loxapine-a-2-NB590]: the “NanoBRET Fold Response” value turned out to be 1.03 in assay [1] (F2RL2, tracer 0.1μM); 1.12 in assay [1] (F2RL2, tracer 1μM); 1.00 in assay [2] (MC3R, tracer 0.1μM); 1.00 in assay [2] (MC3R, tracer 1μM); 1.00 in assay [3] (F2RL3, tracer 0.1μM); 1.02 in assay [3] (F2RL3, tracer 1μM).

Turning to `COc1ccccc1N1CCN(CCCCN2C(=O)c3ccc(CNC(=O)CCOCCOCCOCCOCCNC(=O)CCc4ccc5n4[B-](F)(F)[N+]4=C(c6ccc[nH]6)C=CC4=C5)cc3C2=O)CC1` [NAN-190-2-NB590], the “NanoBRET Fold Response” value in assay [1] (F2RL2, tracer 0.1μM) came out at 1.02; in assay [1] (F2RL2, tracer 1μM), 1.01; in assay [2] (MC3R, tracer 0.1μM), 1.03; in assay [2] (MC3R, tracer 1μM), 1.00; in assay [3] (F2RL3, tracer 0.1μM), 0.99; in assay [3] (F2RL3, tracer 1μM), 1.01.

In the case of `CN(C)CCC=C1c2ccccc2CCc2ccc(C(=O)NCCNC(=O)CCOCCOCCOCCOCCNC(=O)CCc3ccc4n3[B-](F)(F)[N+]3=C(c5ccc[nH]5)C=CC3=C4)cc21` [Amitriptyline-a-2-NB590], the “NanoBRET Fold Response” value in assay [1] (tracer at 0.1μM) stood at 1.03; in assay [1] (tracer at 1μM), 0.99; in assay [3] (tracer at 0.1μM), 1.00; in assay [3] (tracer at 1μM) it was 1.03.
